Reference: patent US11180462B2, “Microbiocidal oxadiazole derivatives” (SYNGENTA PARTICIPATIONS AG, priority 2015, dated 2021)

Tests used:
[1] = tested on: Glomerella lagenarium (Colletotrichum lagenarium); assay: Fungicidal activity against Glomerella lagenarium (Colletotrichum lagenarium) liquid culture / cucumber / preventative (anthracnose); format: cell-based; details: Colletotrichum orbiculare; 20 ppm in the applied formulation; liquid culture (PDB), growth inhibition measured photometrically after 3 to 4 days; compared to untreated control; read-out: disease control
How it was run: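 Photometric read-out of fungal growth after 2–7 days, expressed as percent antifungal activity versus untreated check. Cryo-stored conidia in PDB; compound at 20 ppm; dark, 24 °C, 96% RH.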

[2] = tested on: Puccinia recondita f. Sp. Tritici; assay: Fungicidal activity against Puccinia recondita f. sp. tritici / wheat / leaf disc preventative (brown rust); format: in vivo; details: foliar, 200 ppm in the applied formulation, wheat leaf segments, preventative, compared to untreated control leaf disks, read-out: disease control
How it was run: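 Preventative leaf-segment test, wheat cv. Kanzler on water agar. Spray compound at 200 ppm, inoculate with spores 1 day later; 19° C., 75% rh, 12/12 h light. Read-out: % disease control vs untreated, 7 to 9 days after application.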

[3] = tested on: Puccinia recondita f. Sp. Tritici; assay: Fungicidal activity against Puccinia recondita f. sp. tritici / wheat / leaf disc curative (brown rust); format: in vivo; details: foliar, 24 h, 200 ppm in the applied formulation, wheat leaf segments, curative (applied 1 day after inoculation), compared to untreated control leaf disks, read-out: disease control
How it was run: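 Curative leaf-segment test: compound diluted in water applied 1 day after spore inoculation of cv. Kanzler wheat segments on agar. Conditions 19° C, 75% RH, 12 h/12 h light cycle. Read-out: % disease control relative to untreated check, 6 to 8 days after application.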

Phakopsora Pachyrhizi = assay: Fungicidal activity against Phakopsora pachyrhizi / soybean / leaf disc preventative (Asian soybean rust); format: in vivo; details: foliar, 200 ppm in the applied formulation, soybean leaf disks, compared to untreated control leaf disks, read-out: disease control
How it was run: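 Preventative soybean leaf-disc test: discs on water agar sprayed with diluted formulated compound, inoculated one day later with spores on the lower surface. Held 24–36 h dark at 20°C, 75% rh, then 12 h light/day; percent disease control versus untreated discs scored 12–14 days after application.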

Row | SMILES | melting point [°C] | inhibition of growth at 20 ppm [1] [%] | pest or weed control at 200 ppm [2] [%] | pest or weed control at 200 ppm [3] [%] | pest or weed control at 200 ppm (Phakopsora Pachyrhizi) [%]
1 | CON(Cc1ccc(-c2noc(C(F)(F)F)n2)cc1)C(=O)C(C)NC(=O)C1CC1 (centres unmarked) [Compound 1.798, N-[2-(methoxy-[[4-[5-(trifluoromethyl)-1,2,4-oxadiazol-3-yl]phenyl]methyl]-amino]-1-methyl-2-oxo-ethyl]-cyclopropane-carboxamide] | 129.7 to 134 | – | – | – | –
2 | CON(Cc1ccc(-c2noc(C(F)(F)F)n2)cc1)C(=O)CNC(C)=O [Compound 1.794, 2-acetamido-N-methoxy-N-[[4-[5-(trifluoromethyl)-1,2,4-oxadiazol-3-yl]phenyl]methyl]-acetamide] | 132.8 to 134.9 | ≥ 80 | ≥ 80 | ≥ 80 | –
3 | CON(Cc1ccc(-c2noc(C(F)(F)F)n2)cc1)C(=O)C(C)NC(=O)OC(C)(C)C (centres unmarked) [Compound 1.791, tert-butyl N-[2-(methoxy-[[4-[5-(trifluoromethyl)-1,2,4-oxadiazol-3-yl]phenyl]methyl]-amino]-1-methyl-2-oxo-ethyl]carbamate] | 108.8 to 111.9 | ≥ 80 | ≥ 80 | ≥ 80 | –
4 | CNC(=O)CNC(=O)N(Cc1ccc(-c2noc(C(F)(F)F)n2)cc1)OC [Compound 3.50, 2-[[methoxy-[[4-[5-(trifluoromethyl)-1,2,4-oxadiazol-3-yl]phenyl]methyl]-carbamoyl]amino]-N-methyl-acetamide] | 126 to 130 | – | ≥ 80 | ≥ 80 | –
5 | CCC(=O)N1CCCC1C(=O)N(Cc1ccc(-c2noc(C(F)(F)F)n2)cc1)OC (centres unmarked) [Compound 1.803, N-methoxy-1-propanoyl-N-[[4-[5-(trifluoromethyl)-1,2,4-oxadiazol-3-yl]phenyl]methyl]-pyrrolidine-2-carboxamide] | 148.2 to 150.6 | – | – | – | –
6 | CCOC(=O)c1cnn(CC(=O)N(Cc2ccc(-c3noc(C(F)(F)F)n3)cc2)OC)c1 [Compound 1.807, ethyl 1-[2-[methoxy-[[4-[5-(trifluoromethyl)-1,2,4-oxadiazol-3-yl]phenyl]methyl]-amino]-2-oxo-ethyl]pyrazole-4-carboxylate] | 79.1 to 80.4 | – | – | – | –
7 | CCCCCC(=O)N(Cc1ccc(-c2noc(C(F)(F)F)n2)cc1)OC [Compound 1.20, N-methoxy-N-[[4-[5-(trifluoromethyl)-1,2,4-oxadiazol-3-yl]phenyl]methyl]-hexanamide] | – | ≥ 80 | ≥ 80 | ≥ 80 | ≥ 80
8 | CC=CCC(=O)N(Cc1ccc(-c2noc(C(F)(F)F)n2)cc1)C1CC1 [Compound 1.114, N-cyclopropyl-N-[[4-[5-(trifluoromethyl)-1,2,4-oxadiazol-3-yl]phenyl]methyl]pent-3-enamide] | – | ≥ 80 | ≥ 80 | ≥ 80 | ≥ 80
9 | C=CCN(Cc1ccc(-c2noc(C(F)(F)F)n2)cc1)C(=O)C1CCCO1 (centres unmarked) [Compound 1.489, N-allyl-N-[[4-[5-(trifluoromethyl)-1,2,4-oxadiazol-3-yl]phenyl]methyl]-tetrahydrofuran-2-carboxamide] | – | ≥ 80 | ≥ 80 | ≥ 80 | ≥ 80
10 | O=C(C1CCCO1)N(Cc1ccc(-c2noc(C(F)(F)F)n2)cc1)CC1CC1 (centres unmarked) [Compound 1.242, N-(cyclopropylmethyl)-N-[[4-[5-(trifluoromethyl)-1,2,4-oxadiazol-3-yl]phenyl]methyl]-tetrahydrofuran-2-carboxamide] | – | ≥ 80 | ≥ 80 | ≥ 80 | ≥ 80
11 | CCC(C)C(=O)N(Cc1ccc(-c2noc(C(F)(F)F)n2)cc1)CC1CC1 (centres unmarked) [Compound 1.233, N-(cyclopropylmethyl)-2-methyl-N-[[4-[5-(trifluoromethyl)-1,2,4-oxadiazol-3-yl]phenyl]methyl]-butanamide] | – | ≥ 80 | ≥ 80 | ≥ 80 | ≥ 80
12 | C=CCN(Cc1ccc(-c2noc(C(F)(F)F)n2)cc1)C(=O)C1CCC1 [Compound 1.478, N-allyl-N-[[4-[5-(trifluoromethyl)-1,2,4-oxadiazol-3-yl]phenyl]methyl]-cyclobutane-carboxamide] | – | ≥ 80 | ≥ 80 | ≥ 80 | ≥ 80

Further lines, with some results ahead:

Row | melting point [°C] | SMILES | inhibition of growth at 20 ppm [1] [%] | pest or weed control at 200 ppm [2] [%] | pest or weed control at 200 ppm [3] [%] | pest or weed control at 200 ppm (Phakopsora Pachyrhizi) [%]
13 | 113 to 114 | CNC(=O)N(Cc1ccc(-c2noc(C(F)(F)F)n2)cc1)C1CC1 [Compound 3.35, 1-cyclopropyl-3-methyl-1-[[4-[5-(trifluoromethyl)-1,2,4-oxadiazol-3-yl]phenyl]methyl]urea] | ≥ 80 | ≥ 80 | – | –
14 | 81.2 to 84.9 | CON(Cc1ccc(-c2noc(C(F)(F)F)n2)cc1)C(=O)CBr [Compound 1.806, 2-bromo-N-methoxy-N-[[4-[5-(trifluoromethyl)-1,2,4-oxadiazol-3-yl]phenyl]methyl]-acetamide] | – | – | – | –
15 | 121.7 to 123.9 | CCC(=O)NC(C)C(=O)N(Cc1ccc(-c2noc(C(F)(F)F)n2)cc1)OC (centres unmarked) [Compound 1.797, N-methoxy-2-(propanoylamino)-N-[[4-[5-(trifluoromethyl)-1,2,4-oxadiazol-3-yl]phenyl]methyl]-propanamide] | – | – | – | –
16 | 200.7 to 203.2 | CON(Cc1ccc(-c2noc(C(F)(F)F)n2)cc1)C(=O)C(C)N.Cl (centres unmarked) [Compound 1.792, [2-[methoxy-[[4-[5-(trifluoromethyl)-1,2,4-oxadiazol-3-yl]phenyl]methyl]-amino]-1-methyl-2-oxo-ethyl]ammonium; chloride] | – | ≥ 80 | ≥ 80 | –
17 | 125.1 to 127.2 | CON(Cc1ccc(-c2noc(C(F)(F)F)n2)cc1)C(=O)Cn1cncn1 [Compound 1.808, N-methoxy-2-(1,2,4-triazol-1-yl)-N-[[4-[5-(trifluoromethyl)-1,2,4-oxadiazol-3-yl]phenyl]methyl]-acetamide] | – | – | – | –
18 | 93.9 to 96.8 | CON(Cc1ccc(-c2noc(C(F)(F)F)n2)cc1)C(=O)C1CCCN1C(C)=O (centres unmarked) [Compound 1.805, 1-acetyl-N-methoxy-N-[[4-[5-(trifluoromethyl)-1,2,4-oxadiazol-3-yl]phenyl]methyl]-pyrrolidine-2-carboxamide] | – | – | – | –
19 | 80 to 89 | CON(Cc1ccc(-c2noc(C(F)(F)F)n2)cn1)C(=O)c1ccccc1Cl [Compound 1.572, 2-chloro-N-methoxy-N-[[5-[5-(trifluoromethyl)-1,2,4-oxadiazol-3-yl]-2-pyridyl]methyl]-benzamide] | ≥ 80 | ≥ 80 | – | –
20 | 185.5 to 188.5 | CON(Cc1ccc(-c2noc(C(F)(F)F)n2)cc1)C(=O)C1CCCN1.Cl (centres unmarked) | – | – | – | –
21 | 98.5 to 100.6 | CCC(=O)NC(C(=O)N(Cc1ccc(-c2noc(C(F)(F)F)n2)cc1)OC)C(C)C (centres unmarked) [Compound 1.802, N-methoxy-3-methyl-2-(propanoylamino)-N-[[4-[5-(trifluoromethyl)-1,2,4-oxadiazol-3-yl]phenyl]methyl]-butanamide] | – | – | – | –
